Measured values published in patent publication US10350199B2, “3-(1h-pyrrolo[2,3-b]pyridin-2-yl)-1h-indazoles and therapeutic uses thereof” (Samumed, LLC, priority 2015, dated 2019).
pEC50: −log10 of the molar value.

Key:
Format in all cases: cell-based
[1] = tested on: Wnt activity (Sp5-Luc reporter, SW480 colon carcinoma cells); assay: Wnt activity screening assay, Sp5-Luc reporter gene in SW480 cells; conditions: Homo sapiens; for pEC50: Sp5-Luc reporter, SW480 cells, overnight incubation; for inhibition at 10 µM: SW480, read-out: percent inhibition at 10 μM
In short: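 SW480 cells stably transduced with lentiviral Sp5 promoter (eight TCF/LEF sites)-firefly luciferase, plated at 4,000 cells/well in 1% FBS medium and incubated overnight at 37° C. Luminescence read after BrightGlo addition, normalized to DMSO-only cells; EC50 from four-parameter variable-slope nonlinear regression.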

[2] = tested on: primary human mesenchymal stem cells (hMSCs); assay: Induction of chondrogenesis in human mesenchymal stem cells (nodule area, Rhodamine B/Nile Red); conditions: hMSC chondrogenesis; for EC50: concentration required to induce 50% levels of chondrogenesis of TGF-β3 positive control, read-out: Conc (nM) of 50% TGF-β3 activity; for Emax: relative to TGF-β3 (10 ng/mL) positive control, read-out: Max. Activity as % TGF-β3 activity
From the text: Representative compounds were screened using primary human mesenchymal stem cells (hMSCs) to determine their ability to induce chondrogenesis (process by which cartilage is developed).
Primary human mesenchymal stem cells (hMSCs) were purchased from Lonza (Walkersville, Md.) and expanded in Mesenchymal Stem Cell Growth Media (Lonza). Cells between passage 3 and 6 were used for the experiments.
Area of nodules in each well was normalized to the average of 3 DMSO treated wells on the same plate using Excel (Microsoft Inc.). The normalized averages (fold change over DMSO) of 2 or 3 replicate wells for each compound concentration were calculated. Due to solubility limitations of some of the compounds, curve fitting was incomplete leading to inaccurate EC50 determinations.
Using TGF-β3 as a positive control, the concentration of representative compounds required to induce 50% levels of chondrogenesis is reported. In addition, the maximum activity of each compound and the respective dose that each compound reached maximum chondrogenesis activity is reported.

[3] = tested on: primary human fibroblasts derived from IPF patients (LL29 cells) treated with TGF-β1; assay: Inhibition of the fibrotic process: αSMA staining in TGF-β1 treated LL29 fibroblasts; conditions: Fibroblast; for pEC50: 96 h, LL29 cells, TGF-β1 20 ng/mL, 4 days, % αSMA positive cells; for inhibition at 10 µM: read-out: percent inhibition at 10 μM
In short: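 IPF-patient-derived LL29 lung fibroblasts in F12 with 1% FBS, stimulated with TGF-β1 alongside compound; TGF-β1 plus DMSO wells served as controls. After 4 days, nuclei stained with 1 μM SYTOX green for 30 min at room temperature, alongside αSMA staining.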

SW480 colon cancer cells = assay: Cell viability assay (CellTiter-Blue), SW480 cells, four days; conditions: Homo sapiens; for pEC50: 96 h, SW480 cell viability, four days, CellTiter-Blue; for inhibition at 10 µM: SW480, read-out: percent inhibition at 10 μM
In short: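 Fluorescence from resazurin reduced to resorufin by metabolically active cells was the read-out, taken after ~3 h with CellTiter-Blue.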

[4] = tested on: IL-6 (THP-1 human monocyte cell line); assay: IL-6 inhibition in LPS-stimulated THP-1 cells (HTRF); conditions: for pEC50: IL-6 inhibition, LPS-stimulated THP-1 cells, HTRF; for inhibition at 10 µM: THP-1, read-out: percentage in parentheses beside EC50 >10 (IL-6 inhibition)
In short: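 THP-1 cells kept 24 h in 1% FBS medium, treated 2 h at 37 °C, then stimulated with 500 ng/mL LPS for another 22 h. IL-6 measured by HTRF as the 665/620 nm ratio; EC50 from a four-parameter fit normalized to DMSO controls.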

SMILES | pEC50 [1] | EC50 [2] [nM] | Emax [2] [%] | pEC50 [3] | inhibition at 10 µM [3] [%] | pEC50 (SW480 colon cancer cells) | inhibition at 10 µM (SW480 colon cancer cells) [%] | pEC50 [4] | inhibition at 10 µM [1] [%] | inhibition at 10 µM [4] [%]
CC(C)CC(=O)Nc1cncc(-c2ccc3[nH]nc(-c4cc5c(-c6cccnc6)ccnc5[nH]4)c3c2)c1 [Compound 86, 3-Methyl-N-(5-(3-(4-(pyridin-3-yl)-1H-pyrrolo[2,3-b]pyridin-2-yl)-1H-indazol-5-yl)pyridin-3-yl)butanamide] | 6.74 | 900 | 104 | < 5.00 | 25.9 | < 5.00 | 44.6 | 6.26 |  | 
c1cncc(-c2ccc3[nH]nc(-c4cc5c(-c6cccnc6)ccnc5[nH]4)c3c2)c1 [Compound 88, 5-(Pyridin-3-yl)-3-(4-(pyridin-3-yl)-1H-pyrrolo[2,3-b]pyridin-2-yl)-1H-indazole] | < 5.00 |  | 17 | < 5.00 | 0 | < 5.00 | 11.2 | 6.19 | 48.8 | 
CCNCc1cncc(-c2ccc3[nH]nc(-c4cc5c(-c6cccnc6)ccnc5[nH]4)c3c2)c1 [Compound 90, N-((5-(3-(4-(Pyridin-3-yl)-1H-pyrrolo[2,3-b]pyridin-2-yl)-1H-indazol-5-yl)pyridin-3-yl)methyl)ethanamine] | < 5.00 |  | 29 | < 5.00 | 0 | < 5.00 | 31.3 | 6.25 | 28.6 | 
CC(C)Nc1cncc(-c2ccc3[nH]nc(-c4cc5c(-c6cccnc6)ccnc5[nH]4)c3c2)c1 [Compound 96, N-Isopropyl-5-(3-(4-(pyridin-3-yl)-1H-pyrrolo[2,3-b]pyridin-2-yl)-1H-indazol-5-yl)pyridin-3-amine] | < 5.00 |  | 45 | < 5.00 | 10 | < 5.00 | 28.2 | 6.39 | 38.9 | 
c1cncc(-c2ccnc3[nH]c(-c4n[nH]c5ccc(-c6cncc(CN7CCCCC7)c6)cc45)cc23)c1 [Compound 99, 5-(5-(Piperidin-1-ylmethyl)pyridin-3-yl)-3-(4-(pyridin-3-yl)-1H-pyrrolo[2,3-b]pyridin-2-yl)-1H-indazole] | < 5.00 | 30 | 62 | < 5.00 | 4 | < 5.00 | 50.6 | < 5.00 | 18.6 | 0
O=C(Nc1cncc(-c2ccc3[nH]nc(-c4cc5c(-c6cccnc6)ccnc5[nH]4)c3c2)c1)C1CCCCC1 [Compound 107, N-(5-(3-(4-(Pyridin-3-yl)-1H-pyrrolo[2,3-b]pyridin-2-yl)-1H-indazol-5-yl)pyridin-3-yl)cyclohexanecarboxamide] | < 5.00 |  | 39 | < 5.00 | 41.7 | < 5.00 | 12 | < 5.00 | 10.6 | 34.4
FC1(F)CCN(Cc2cncc(-c3ccc4[nH]nc(-c5cc6c(-c7cccnc7)ccnc6[nH]5)c4c3)c2)C1 [Compound 110, 5-(5-((3,3-Difluoropyrrolidin-1-yl)methyl)pyridin-3-yl)-3-(4-(pyridin-3-yl)-1H-pyrrolo[2,3-b]pyridin-2-yl)-1H-indazole] | 6.28 |  | 20 | 7.02 |  | < 5.00 | 51.8 | 5.48 |  | 
Cc1ccncc1-c1ccc2[nH]nc(-c3cc4c(-c5ccncc5)ccnc4[nH]3)c2c1 [Compound 117, 5-(4-Methylpyridin-3-yl)-3-(4-(pyridin-4-yl)-1H-pyrrolo[2,3-b]pyridin-2-yl)-1H-indazole] | < 5.00 |  | 44 | < 5.00 | 44.2 | < 5.00 | 4.6 | < 5.00 | 31.8 | 31.5
CC(C)(C)C(=O)Nc1cncc(-c2ccc3[nH]nc(-c4cc5c(-c6ccncc6)ccnc5[nH]4)c3c2)c1 [Compound 120, N-(5-(3-(4-(Pyridin-4-yl)-1H-pyrrolo[2,3-b]pyridin-2-yl)-1H-indazol-5-yl)pyridin-3-yl)pivalamide] | < 5.00 |  | 44 | < 5.00 | 12.8 | < 5.00 | 10.7 | < 5.00 | 36.6 | 35.6
O=C(Nc1cncc(-c2ccc3[nH]nc(-c4cc5c(-c6ccncc6)ccnc5[nH]4)c3c2)c1)c1ccccc1 [Compound 123, N-(5-(3-(4-(Pyridin-4-yl)-1H-pyrrolo[2,3-b]pyridin-2-yl)-1H-indazol-5-yl)pyridin-3-yl)benzamide] | < 5.00 |  | 19 | < 5.00 | 49.2 | < 5.00 | 7.2 | < 5.00 | 17.3 | 20.6
CN(C)Cc1cncc(-c2ccc3[nH]nc(-c4cc5c(-c6ccncc6)ccnc5[nH]4)c3c2)c1 [Compound 125, N,N-Dimethyl-1-(5-(3-(4-(pyridin-4-yl)-1H-pyrrolo[2,3-b]pyridin-2-yl)-1H-indazol-5-yl)pyridin-3-yl)methanamine] | < 5.00 |  | 37 | < 5.00 | 0 | < 5.00 | 7.4 | < 5.00 | 29.7 | 49.7
CCCCC(=O)Nc1cncc(-c2ccc3[nH]nc(-c4cc5c(-c6ccncc6)ccnc5[nH]4)c3c2)c1 [Compound 131, N-(5-(3-(4-(Pyridin-4-yl)-1H-pyrrolo[2,3-b]pyridin-2-yl)-1H-indazol-5-yl)pyridin-3-yl)pentanamide] | < 5.00 |  | 18 | < 5.00 | 6.3 | < 5.00 | 10.6 | < 5.00 | 16.7 | 31.5
O=C(Nc1cncc(-c2ccc3[nH]nc(-c4cc5c(-c6ccncc6)ccnc5[nH]4)c3c2)c1)C1CCC1 [Compound 133, N-(5-(3-(4-(Pyridin-4-yl)-1H-pyrrolo[2,3-b]pyridin-2-yl)-1H-indazol-5-yl)pyridin-3-yl)cyclobutanecarboxamide] | < 5.00 | 900 | 73 | < 5.00 | 0 | < 5.00 | 6.4 | < 5.00 | 2.8 | 33.3
c1cc(-c2ccnc3[nH]c(-c4n[nH]c5ccc(-c6cncnc6)cc45)cc23)ccn1 [Compound 139, 3-(4-(Pyridin-4-yl)-1H-pyrrolo[2,3-b]pyridin-2-yl)-5-(pyrimidin-5-yl)-1H-indazole] | < 5.00 |  | 17 | < 5.00 | 14.5 | < 5.00 | 5.3 | < 5.00 | 7.5 | 43.1
Nc1cncc(-c2ccc3[nH]nc(-c4cc5c(-c6ccccn6)ccnc5[nH]4)c3c2)c1 [Compound 143, 5-(3-(4-(Pyridin-2-yl)-1H-pyrrolo[2,3-b]pyridin-2-yl)-1H-indazol-5-yl) pyridin-3-amine] | 7.66 |  | 46 | 7.35 |  | 7.05 |  | 7.08 |  | 
CN(C)c1cncc(-c2ccc3[nH]nc(-c4cc5c(-c6ccccn6)ccnc5[nH]4)c3c2)c1 [Compound 147, N,N-Dimethyl-5-(3-(4-(pyridin-2-yl)-1H-pyrrolo[2,3-b]pyridin-2-yl)-1H-indazol-5-yl)pyridin-3-amine] | < 5.00 | 10 | 77 | < 5.00 | 34 | < 5.00 | 15.4 | < 5.00 | 13.7 | 30.5
